Values quoted from earlier work, collected in US20210145768A1, “MODULATING IMMUNE RESPONSE VIA TARGETING OF OLFACTORY RECEPTOR ACTIVITY” (La Jolla Institute for Allergy and Immunology, priority 2018, published 2021).

System: olfactory receptors
Details: odorant (agonist) : olfactory receptor pair; cited from earlier work

Row | Structure (SMILES) | Olfactory receptor agonized by the odorant (agonist)
1 | CCCCCOC(=O)CCC [amyl butyrate] | OR2AG1
2 | O=C(O)CCCCCCCC(=O)O [azelaic acid] | Olfr544 (human unknown)
3 | CC1=CCC(CCC(C)CO)C1(C)C (stereo not drawn) [Brahmanol] | OR2AT4
